# Test results from patent publication US20190314361A1 (Athenex Therapeutics Limited, priority 2018, published 2019).
# Where “and” joins values, the source holds several entries; their conditions need not be identical. Identical values can stand only once. Like-named read-outs stand apart in the source and are kept apart here.
# Experiments:
# [1] = dogs
# SVRbag4 cells = test: In vitro cytotoxicity (MTT) in SVRbag4 cells; assay type: cell-based, mouse; conditions: SVRbag4, 72 hours, Mean ± SD
# Method: (§1) Three independent experiments of two replicates were completed. A 10 μL aliquot of 3-(4,5-dimethylthiazol-2-yl)-2,5-diphenyltetrazolium bromide (MTT) solution (5 mg/mL in PBS) was added to each well and incubated at 37° C. for 2 hours. The culture medium was removed followed by addition of 100 μL of DMSO to each well. The absorbance in each well was measured at 540 nm using a SpectraMax microplate reader. A sigmoid Emax model using nonlinear regression (Equation 1) with least squares fit was used to estimate Emax and GI50 values using GraphPad Prism 6 for each experiment:
# (§2) The average Emax and GI50 values and standard deviated from three individual experiments were calculated and reported. R-squared of all curve fits exceeded 0.9.
# [2] = human; for AUC0-24 / Cmax: range across dose levels, 2 consecutive daily oral doses
# Method: A 2-part study was conducted in subjects with advanced/metastatic or recurrent gastric cancer. […] In some cases, an additional 15 mg tablet of Compound A on Day 2 was given in each dosing week. A total of 56 subjects enrolled in this study: 10 subjects with advanced malignant tumors in Part 1 and 46 subjects with advanced gastric cancer in Part 2.
# [3] = tested on: tubulin in MS1, SVRA221a, and SVRbag4 cell lines; test: Immunofluorescence microscopy of tubulin disruption; assay type: cell-based, mouse; conditions: SVRbag4 treated with 1-100 nM paclitaxel for 3 hours
# Method: Coverslips (22-mm) were pre-coated with rat tail collagen for 1 hour then seeded with cells in 6-well plates for 24 hours before treatment. […] After blocking with 2% BSA in PBS for 30 min, cells were incubated with anti α-tubulin antibody (Sigma 6199) diluted in blocking buffer (2% BSA in PBS) for 1.5 hours at room temperature. Cells were washed three times with PBS and incubated with […] anti-Mouse IgG (Invitrogen) for 1 hours at room temperature. Following three PBS washes, coverslips were mounted on glass slides in ProLong antifade reagent (Invitrogen). Fluorescent images were captured using a Nikon TE2000-E inverted microscope for two independent experiments.
# [4] = for AUCinf / AUClast / CL/F / Cmax / MRTinf / Vd/F / t1/2 / CLR: in vivo, po
# [5] = Paclitaxel pharmacokinetics in dogs after single oral dose with Compound A; assay type: in vivo, dog
# HMEC-1 cells = test: In vitro cytotoxicity (MTT) in HMEC-1 cells; assay type: cell-based, human; conditions: HMEC-1, 72 hours, Mean ± SD
# Method: as §1, §2
# [6] = Paclitaxel pharmacokinetics in rats after single oral dose with Compound A; assay type: in vivo, rat
# MS1 cells = test: In vitro cytotoxicity (MTT) in MS1 cells; assay type: cell-based, mouse; conditions: MS1, 72 hours, Mean ± SD
# Method: as §1, §2
# [7] = tested on: NCI-H460 lung human cancer cell line; conditions: Athymic nude mice, paclitaxel alone 24 mg/kg IV, every other day for 4 doses
# Method: (§3) In these studies, tumor inhibition rate (IR %) was calculated as ([1−relative tumor growth in treated group/relative tumor growth in control group]×100). Tumor regression was calculated as (Mean Tumor WeightEnd of treatment/Mean tumor WeightBeginning of treatment)×100. Therefore, a value <100% for tumor regression indicates a decrease in tumor weight over the course of the study and a value >100% indicates an increase in tumor weight. Tumor growth delay was calculated as the median number of days to reach two tumor mass doublings.
# [8] = tested on: SK-OV-3 ovarian human cancer cell line; conditions: NCr-nu (athymic) mice, paclitaxel alone 18 mg/kg IV, every other day for 4 doses
# Method: as §3
# [9] = tested on: MDA-MB-231 mammary human cancer cell line; conditions: NCr-nu (athymic) mice, paclitaxel alone 18 mg/kg IV, every other day for 4 doses
# Method: as §3
# [10] = tested on: SKOV-3 ovarian human cancer cell line; conditions: NU/Nu Balb/C mice, paclitaxel alone 30 mg/kg IV, 1x weekly for 3 weeks
# Method: as §3
# [11] = tested on: A431 vaginal epidermoid human cancer cell line; conditions: NU/Nu Balb/C mice, paclitaxel alone 30 mg/kg IV, 1x weekly for 3 weeks
# Method: as §3
# [12] = tested on: HT-29 colon human cancer cell line; conditions: NU/Nu Balb/C mice
# Method: as §3
# SVRA221a cells = test: In vitro cytotoxicity (MTT) in SVRA221a cells; assay type: cell-based, mouse; conditions: 72 hours, Mean ± SD
# Method: as §1, §2
# [13] = Cardiovascular safety pharmacology in dogs; assay type: in vivo, dog; conditions: oral administration
# [14] = CNS safety pharmacology study in rats; assay type: in vivo, rat; conditions: oral administration
# [15] = Fasted, single oral dose paclitaxel 6 mg/kg with Compound A 3 mg/kg
# [16] = Fed, single oral dose paclitaxel 6 mg/kg with Compound A 3 mg/kg
# [17] = Mus musculus, medium pre-supplemented with 1 μM Compound A
# [18] = single oral dose paclitaxel 2 mg/kg with Compound A
# [19] = single oral dose paclitaxel 4 mg/kg with Compound A
# [20] = single oral dose paclitaxel 6 mg/kg with Compound A
# [21] = single oral dose paclitaxel 5 mg/kg with Compound A
# [22] = single oral dose paclitaxel 10 mg/kg with Compound A
# [23] = single oral dose paclitaxel 20 mg/kg with Compound A
# [24] = single oral dose paclitaxel 30 mg/kg with Compound A
# [25] = single oral dose paclitaxel 40 mg/kg with Compound A
# [26] = single oral dose paclitaxel 50 mg/kg with Compound A
structure (smiles),measurement,setting,value
"CC(=O)O[C@H]1C(=O)[C@@]2(C)[C@H]([C@H](OC(=O)c3ccccc3)[C@]3(O)C[C@H](OC(=O)[C@H](O)[C@@H](NC(=O)c4ccccc4)c4ccccc4)C(C)=C1C3(C)C)[C@]1(OC(C)=O)CO[C@@H]1C[C@@H]2O [Paclitaxel, 5,20-Epoxy-1,2,4,7,10-13-hexahydroxytax-11-en-9-one-4,10-diacetate 2-benzoate 13-ester with (2R,3S)—N-benzoyl-3-phenylisoserine]",AUClast,[1]; [15],1599.8 ± 416.5 ng·h/mL
same,CL/F,[1]; [15],4.2 ± 1.2 L/h
same,Tmax,[1]; [15],0.5 ± 0.0 h
same,t1/2,[1]; [15],9.4 ± 0.3 h
same,AUClast,[1]; [16],849.1 ± 119.9 ng·h/mL
same,CL/F,[1]; [16],6.4 ± 1.3 L/h
same,Cmax,[1]; [16],299.0 ± 54.6 ng/mL
same,Tmax,[1]; [16],0.7 ± 0.2 h
same,t1/2,[1]; [16],9.9 ± 2.7 h
same,"Paclitaxel Cmax and AUC, fasted group as compared to fed group",[1]; orally administered paclitaxel,~2 fold
same,GI50,SVRbag4 cells; [17],3.9 ± 1 ng/mL
same,Emax (% inhibition),SVRbag4 cells,99 ± 1.4 % inhibition
same,"Overall exposure on Day 2, higher than Day 1","[2]; in vivo, po",20-30%
same,AUC0-24,[2]; Day 1,611 to 894 ng·h/mL
same,Cmax,[2]; Day 1,202 to 280 ng/mL
same,AUC0-24,[2]; Day 2,735 to 1081 ng·h/mL
same,Cmax,[2]; Day 2,159 to 315 ng/mL
same,concentration at which condensed and rounded morphology and polymerization of microtubules start,[3],5-10 nM and 4.2-8.5 ng/mL
same,MTD,"[4]; 24 subjects with advanced solid cancer, oral paclitaxel 60 to 420 mg/m^2 on days 1, 8, 15 of 28-day cycle with Compound A",not reached
same,AUCinf,"[4]; human, 60 mg/m2",727.1 ng·h/mL
same,AUClast,"[4]; human, 60 mg/m2",584.1 ng·h/mL
same,CL/F,"[4]; human, 60 mg/m2",178.4 L/h
same,Cmax,"[4]; human, 60 mg/m2",149.6 ng/mL
same,MRTinf,"[4]; human, 60 mg/m2",28.6 h
same,Vd/F,"[4]; human, 60 mg/m2",9128.7 L
same,t1/2,"[4]; human, 60 mg/m2",32.1 h
same,AUCinf,"[4]; human, 120 mg/m2",1840.1 ng·h/mL
same,AUClast,"[4]; human, 120 mg/m2",1611.1 ng·h/mL
same,CLR,"[4]; human, 120 mg/m2",3.0 L/h
same,MRTinf,"[4]; human, 120 mg/m2",17.0 h
same,Vd/F,"[4]; human, 120 mg/m2",4036.0 L
same,AUCinf,"[4]; human, 180 mg/m2",1985.0 ng·h/mL
same,AUClast,"[4]; human, 180 mg/m2",1673.9 ng·h/mL
same,CL/F,"[4]; human, 180 mg/m2",173.4 L/h
same,CLR,"[4]; human, 180 mg/m2",1.8 L/h
same,Cmax,"[4]; human, 180 mg/m2",432.0 ng/mL
same,MRTinf,"[4]; human, 180 mg/m2",21.9 h
same,Vd/F,"[4]; human, 180 mg/m2",6030.7 L
same,t1/2,"[4]; human, 180 mg/m2",24.4 h
same,AUCinf,"[4]; human, 240 mg/m2",2971.2 ng·h/mL
same,AUClast,"[4]; human, 240 mg/m2",2547.4 ng·h/mL
same,CL/F,"[4]; human, 240 mg/m2",147.6 L/h
same,CLR,"[4]; human, 240 mg/m2",2.4 L/h
same,Cmax,"[4]; human, 240 mg/m2",509.6 ng/mL
same,MRTinf,"[4]; human, 240 mg/m2",23.4 h
same,Vd/F,"[4]; human, 240 mg/m2",6011.5 L
same,t1/2,"[4]; human, 240 mg/m2",25.7 h
same,AUCinf,"[4]; human, 300 mg/m2",3481.1 ng·h/mL
same,AUClast,"[4]; human, 300 mg/m2",3135.0 ng·h/mL
same,CLR,"[4]; human, 300 mg/m2",2.0 L/h
same,MRTinf,"[4]; human, 300 mg/m2",16.2 h
same,Vd/F,"[4]; human, 300 mg/m2",4927.3 L
same,AUCinf,"[4]; human, 360 mg/m2",2851.7 ng·h/mL
same,AUClast,"[4]; human, 360 mg/m2",2512.1 ng·h/mL
same,CL/F,"[4]; human, 360 mg/m2",228.7 L/h
same,CLR,"[4]; human, 360 mg/m2",7.3 L/h
same,Cmax,"[4]; human, 360 mg/m2",655.0 ng/mL
same,MRTinf,"[4]; human, 360 mg/m2",18.7 h
same,Vd/F,"[4]; human, 360 mg/m2",6837.8 L
same,t1/2,"[4]; human, 360 mg/m2",20.8 h
same,AUCinf,"[4]; human, 420 mg/m2",3731.5 ng·h/mL
same,AUClast,"[4]; human, 420 mg/m2",3407.1 ng·h/mL
same,CL/F,"[4]; human, 420 mg/m2",244.9 L/h
same,CLR,"[4]; human, 420 mg/m2",2.9 L/h
same,Cmax,"[4]; human, 420 mg/m2",707.5 ng/mL
same,MRTinf,"[4]; human, 420 mg/m2",14.7 h
same,Vd/F,"[4]; human, 420 mg/m2",7175.1 L
same,t1/2,"[4]; human, 420 mg/m2",19.9 h
same,T1/2,"[4]; human, range over oral paclitaxel doses 60 to 420 mg/m^2 with Compound A",19.9 to 32.1 h
same,AUClast Paclitaxel,[5]; [18],413 ng·h/mL
same,Tmax Paclitaxel,[5]; [18],0.5 h
same,AUClast Paclitaxel,[5]; [19],1331 ng·h/mL
same,Tmax Paclitaxel,[5]; [19],0.7 h
same,AUClast Paclitaxel,[5]; [20],2123 ng·h/mL
same,Tmax Paclitaxel,[5]; [20],0.5 h
same,Emax (% inhibition),HMEC-1 cells,99 ± 0.10 % inhibition
same,GI50,"HMEC-1 cells; Homo sapiens, medium pre-supplemented with 1 μM Compound A",0.46 ± 0.23 ng/mL
same,AUClast Paclitaxel,[6]; [21],333 ng·h/mL
same,Cmax Paclitaxel,[6]; [21],103 ng/mL
same,Tmax Paclitaxel,[6]; [21],0.6 h
same,AUClast Paclitaxel,[6]; [22],1027 ng·h/mL
same,Cmax Paclitaxel,[6]; [22],356 ng/mL
same,Tmax Paclitaxel,[6]; [22],0.7 h
same,AUClast Paclitaxel,[6]; [23],3009 ng·h/mL
same,Cmax Paclitaxel,[6]; [23],852 ng/mL
same,Tmax Paclitaxel,[6]; [23],1.2 h
same,AUClast Paclitaxel,[6]; [24],6638 ng·h/mL
same,Cmax Paclitaxel,[6]; [24],1761 ng/mL
same,Tmax Paclitaxel,[6]; [24],1.2 h
same,t1/2 Paclitaxel,[6]; [24],6.0 h
same,AUClast Paclitaxel,[6]; [25],11052 ng·h/mL
same,Cmax Paclitaxel,[6]; [25],2488 ng/mL
same,Tmax Paclitaxel,[6]; [25],1.5 h
same,t1/2 Paclitaxel,[6]; [25],5.5 h
same,AUClast Paclitaxel,[6]; [26],13124 ng·h/mL
same,Cmax Paclitaxel,[6]; [26],3067 ng/mL
same,Tmax Paclitaxel,[6]; [26],1.4 h
same,t1/2 Paclitaxel,[6]; [26],5.3 h
same,Emax (% inhibition),MS1 cells,93 ± 4.5 % inhibition
same,GI50,"MS1 cells; Mus musculus, MS-1, medium pre-supplemented with 1 μM Compound A",1.8 ± 0.36 ng/mL
same,Effect: growth delay,[7],16.3 days
same,Effect: growth delay,[8],43.8 days
same,Effect: growth delay,[9],>55.9 days
same,Effect: tumor inhibition rate (IR %),[10],72.79 IR %
same,Effect: tumor inhibition rate (IR %),[11],45.41 IR %
same,Effect: tumor regression,"[12]; paclitaxel alone 20 mg/kg IV every 4 days for 4 doses, >100% = increase in tumor weight",163.09% tumor
same,Effect: tumor inhibition rate (IR %),[12]; paclitaxel alone 25 mg/kg IP every 4 days for 4 doses,65.82 IR %
same,Emax (% inhibition),SVRA221a cells,96 ± 1.1 % inhibition
same,GI50,SVRA221a cells; [17],1.8 ± 1 ng/mL
COc1cc2c(cc1OC)CN(CCc1ccc(-n3nnc(-c4cc(OC)c(OC)cc4NC(=O)c4cc(=O)c5ccccc5o4)n3)cc1)CC2 [Compound A],Effect on PR and QRS intervals,[13],absence
same,Effect on body temperature,[14],absence
